According to patent publication US11786485B2, “Methods and compositions for treating advanced stage non-small cell lung cancer” (Golden Biotechnology Corporation, priority 2016, dated 2023):

Tests used:
[1] = Reproductive toxicity in vivo study; conditions: up to 80 mg/kg/day, Sprague-Dawley rats
[2] = Phase 1 clinical study: safety/tolerability; type: in vivo
Method: (§1) A first-in-human phase 1 study was performed to determine the MTD and to evaluate PK, safety/tolerability and efficacy profiles of exemplary Compound 1 in NSCLC patients who are refractory to conventional treatment modalities. This open-label, non-randomized, dose-escalation study, which completed in February 2013, enrolled a total of 13 patients; seven males and six females, all of whom were Asian. A total of five patients were enrolled an accelerated titration phase (one patient each in the 50, 100, 200, 300, and 450 mg dose groups) and eight patients were enrolled in a standard titration phase (three patients in the 450 mg dose group and five patients in the 600 mg dose group).

[3] = Safety pharmacology: cardiovascular effect; type: in vivo; conditions: beagle dogs
hERG ion channel = hERG ion channel (Homo sapiens, UniProt Q12809); test: Safety pharmacology: binding activity with hERG ion channel in vitro
hERG ion channel, sequence (Q12809 whole entry): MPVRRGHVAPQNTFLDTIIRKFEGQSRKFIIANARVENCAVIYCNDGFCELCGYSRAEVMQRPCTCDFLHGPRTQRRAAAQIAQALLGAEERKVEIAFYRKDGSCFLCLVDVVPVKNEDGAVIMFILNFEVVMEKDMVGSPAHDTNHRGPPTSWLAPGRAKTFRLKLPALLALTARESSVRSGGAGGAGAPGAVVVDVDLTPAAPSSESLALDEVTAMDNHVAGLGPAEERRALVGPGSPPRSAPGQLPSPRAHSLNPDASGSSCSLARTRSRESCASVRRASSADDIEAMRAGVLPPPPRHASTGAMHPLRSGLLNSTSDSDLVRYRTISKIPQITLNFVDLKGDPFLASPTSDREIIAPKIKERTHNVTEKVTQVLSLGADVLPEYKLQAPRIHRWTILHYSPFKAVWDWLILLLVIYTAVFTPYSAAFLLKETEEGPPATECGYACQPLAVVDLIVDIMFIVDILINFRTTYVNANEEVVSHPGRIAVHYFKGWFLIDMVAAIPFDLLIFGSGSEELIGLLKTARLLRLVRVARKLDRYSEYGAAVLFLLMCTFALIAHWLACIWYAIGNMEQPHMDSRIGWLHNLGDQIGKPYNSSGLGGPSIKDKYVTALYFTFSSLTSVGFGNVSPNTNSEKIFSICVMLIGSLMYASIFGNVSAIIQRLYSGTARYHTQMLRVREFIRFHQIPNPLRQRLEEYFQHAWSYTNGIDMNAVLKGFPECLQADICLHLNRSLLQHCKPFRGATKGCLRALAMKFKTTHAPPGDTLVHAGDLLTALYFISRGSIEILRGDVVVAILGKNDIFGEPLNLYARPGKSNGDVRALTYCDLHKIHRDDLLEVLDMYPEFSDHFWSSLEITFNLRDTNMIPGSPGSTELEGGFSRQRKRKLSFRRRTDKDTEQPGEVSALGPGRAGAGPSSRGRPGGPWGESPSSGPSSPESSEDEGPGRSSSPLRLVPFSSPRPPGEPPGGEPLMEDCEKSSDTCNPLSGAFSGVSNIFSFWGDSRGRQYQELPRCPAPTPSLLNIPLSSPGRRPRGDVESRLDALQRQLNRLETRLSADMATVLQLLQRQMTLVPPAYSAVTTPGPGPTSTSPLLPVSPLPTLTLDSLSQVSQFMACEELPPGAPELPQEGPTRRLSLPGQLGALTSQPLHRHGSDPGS

[4] = Genotoxicity tests (Ames, mammalian cell gene mutation, micronucleus, erythrocyte micronucleus)
[5] = 28-day toxicity study in rats; type: in vivo; conditions: rat
Method: . Two 28-days toxicity studies were conducted to determine no observed adverse effect level (NOAEL) for Sprague-Dawley rats and beagle dogs. […]

[6] = Phase 1 clinical study: pharmacokinetics; type: in vivo
Method: as §1
Compound 1 will be administered as a single agent in this study at a dose of 600 mg per day (200 mg t.i.d. administered at 8-hour intervals). This dose regimen was chosen based on results from the Phase 1 clinical study involving NSCLC patients refractory to conventional treatment modalities, which reported good tolerability of Compound 1 up to 600 mg/day.

[7] = Safety pharmacology: central nervous system effect; type: in vivo; conditions: Sprague-Dawley rat
[8] = 7-day toxicity study in rats; conditions: Sprague-Dawley, rat, in vivo, 7-day study, read-out: maximum tolerated dose (MTD)
[9] = tested on: different cancer cell lines; test: Cancer cell death, IC50; type: cell-based
Excerpt: Compound 1 inhibited isoprenyltransferase activity and molecular docking analysis predicted that the isoprene unit and the 4′-hydroxy group of Compound 1 may play important roles in the interaction between Compound 1 and isoprenyltransferase. In addition, Compound 1 increased the expression level of beclin-1 (three-fold), LC3-II/I (P<0.01) and […] formation in lung cancer cells. Compound 1 may therefore inhibit Ras activation through inhibition of isoprenyltransferase, leading to autophagic cell death.

[10] = Tissue distribution in rat; type: in vivo; conditions: previous study
[11] = Safety pharmacology: respiratory system effect; type: in vivo; conditions: Sprague-Dawley rat
[12] = 7-day toxicity study in dogs; conditions: beagle, dog, in vivo, 7-day study, read-out: maximum tolerated dose (MTD)
[13] = tested on: stage IV (including pleural effusion) non-squamous NSCLC; test: Phase II study in stage IV non-squamous NSCLC patients; type: in vivo, human
Excerpt: This is a single-arm, open-label, Phase II study in KRAS-positive and KRAS-negative patients with stage IV (including pleural effusion) non-squamous NSCLC who have failed two lines of anti-cancer therapy. This is defined as patients with radiologically confirmed disease progression following greater than or equal to two, but less than or equal to four, prior lines of systemic anti-cancer therapy. A maximum of 60 evaluable patients with NSCLC will receive Compound 1, of which 30 patients will be KRAS-positive and 30 patients KRAS-negative. An evaluable patient will have received at least one dose of Compound 1 and have a valid baseline tumor assessment. Enrollment will continue until the target number of evaluable patients has been enrolled.
Written informed consent must be obtained from all patients before initiating Screening. The Screening period will be up to 42 days in duration (Days −42 to −1). Following completion of all Screening assessments and confirmation of eligibility criteria, patients will receive Compound 1 200 mg three-times-a-day (t.i.d. at 8-hour intervals) on Day 0 for 12 weeks (one treatment cycle) or until documented evidence of disease progression, unacceptable toxicity, non-compliance or withdrawal of consent by the patient, or the investigator decides to discontinue treatment, whichever comes first. Study drug should be taken at 8-hour intervals. The time of study drug administration should be recorded in the patient diary.
The primary efficacy endpoint is progression-free survival (PFS) rate at 12 weeks, which is defined as the proportion of patients alive and progression-free at Week 12. Patients will be progression-free if they have no evidence of progressive disease (defined according to RECIST guidelines, version 1.1) from the start of treatment to Week 12.
The primary endpoint is the PFS rate at 12 weeks, defined as the proportion of patients alive and progression-free at Week 12. […]
Tumor response will be assessed at 6-week intervals during the first treatment cycle using the RECIST criteria version 1.1. […]

NSCLC = test: Phase 1 clinical study: efficacy (tumor overall response); type: in vivo, human; conditions: end of treatment
Method: as §1
The PPS was defined in the Phase 1 study as all patients who completed at least three cycles of treatment with proper imaging assessment (RECIST v.1.1).

[14] = Toxicokinetic evaluations in rats and dogs; type: in vivo; conditions: for dose proportionality of exposure: rat and dog
Method: Toxicokinetic evaluations were performed on a 7-day dog study (100, 250, 500 mg/kg/day single dose, 500 mg/kg/day 3 days dose) and the two 28-day studies mentioned above (Rat: 10, 30, 100 mg/kg/day single and 28 days dose; Dog: 10, 30, 100 mg/kg/day single and 28 days dose).

[15] = 28-day toxicity study in dogs; type: in vivo; conditions: 28-day study, dog
Method: […]. Two 28-days toxicity studies were conducted to determine no observed adverse effect level (NOAEL) for Sprague-Dawley rats and beagle dogs. […].

[16] = Preclinical pharmacokinetic studies; type: in vivo; conditions: preclinical PK studies
[17] = tested on: epidermal growth factor receptor (EGFR); conditions: human, in vivo; cited from earlier work

COC1=C(OC)C(O)C(C/C=C(\C)CC/C=C(\C)CCC=C(C)C)C(C)C1=O (stereo not shown) [Compound 1, 4-hydroxy-2,3-dimethoxy-6-methyl-5-(3,7,11-trimethyldodeca-2,6,10-trienyl)cyclohex-2-enone]
reproductive toxicity [1]: no reproductive toxicity | patients with Grade 3 TEAEs ([2]; 200 mg vertigo, 450 mg decreased appetite and encephalitis, unrelated to study drug): two | laboratory abnormality recorded as a TEAE ([2]; 450 mg dose group, considered unrelated to study drug): one case of hematuria of Grade 1 | patients with treatment-related TEAEs ([2]; 13 patients treated): 100% | Dose Limiting Toxicities (DLTs) ([2]; 50, 100, 200, 300, 450, 600 mg, Intent-to-Treat Population): No Dose Limiting Toxicities | toxicity profile ([2]; 50-600 mg dose levels): low toxicity profile | safety and tolerability ([2]; 50-600 mg dose levels, daily for 4 weeks): generally safe and well tolerated | clinically significant changes in vital sign, ECG and physical examination parameters ([2]; Follow-Up Visit): None of the patients | diarrhea, patients ([2]; Grade 1): 69.2% | gastrointestinal disorders, patients ([2]; Grade 1): 53.8% | nausea, patients ([2]; Grade 1): 46.2% | vomiting, patients ([2]; Grade 1): 46.2% | diarrhea, patients ([2]; Grade 2): 7.7% | gastrointestinal disorders, patients ([2]; Grade 2): 38.5% | nausea, patients ([2]; Grade 2): 7.7% | vomiting, patients ([2]; Grade 2): 23.1% | Grade 4 treatment-emergent adverse events (TEAEs) ([2]; NCI-CTCAE Version 4.03): No Grade 4 | diarrhea, patients ([2]; all grades): 76.9% | gastrointestinal disorders, patients ([2]; all grades): 92.3% | nausea, patients ([2]; all grades): 53.8% | vomiting, patients ([2]; all grades): 69.2% | ECOG score ([2]; all patients at all time points except two patients in the 450 mg group (scores 4 and 2)): 1 | patients reporting serious adverse events (SAEs) ([2]; two each at 450 and 600 mg, none related to study drug): four | cardiovascular effect [3]: no particular safety concerns | binding activity with hERG ion channel (hERG ion channel): no particular safety concerns | genotoxicity [4]: No genotoxicity | toxicity of the high dose ([5]; 28-day study, 100 mg/kg/day): not severely toxic | NOAEL at 28 days ([5]; Sprague-Dawley, in vivo): 30 mg/kg/day | differences in AUC0-24 within the 100-300 mg dose range ([6]; Day 1 and Day 28): no significant differences | proportionality of AUC0-24 to dose ([6]; Day 1 and Day 28): not linearly proportional | dose with the highest peak concentration (Cmax) over the 100-300 mg dose range ([6]; Day 28): 200 mg | extent of absorption versus dose ([6]; human, in vivo): dose proportional | rate and extent of absorption versus dose ([6]; human, in vivo): increased in a dose proportional manner | rate of absorption versus dose ([6]; human, in vivo): non-dose proportional | central nervous system effect [7]: no particular safety concerns | MTD at 7 days [8]: 100 mg/kg/day | IC50 [9]: 2.22 to 6.42 µM | tissue with the highest accumulation [10]: lung tissue | respiratory system effect [11]: no particular safety concerns | MTD at 7 days [12]: 100 mg/kg/day | subjects alive or progression free at 12 week ([13]; 200 mg t.i.d., overall population): 4 subjects out of 20 | tumor progression free rate or proportion of patients alive at 12 weeks ([13]; KRAS mutant patients, 200 mg t.i.d.): 3/14 | efficacy for target and non-target lesions at lung related sites ([13]; preliminary phase 2 result): 5/11 | proportion of Per-Protocol patients with stable disease (NSCLC): 100% | Tmax ([14]; Sprague-Dawley (rat), beagle (dog), rat, dog, in vivo, rats and dogs, 7-day and 28-day studies, read-out: peak time (Tmax)): 0.25 to 6 h | dose proportionality of exposure ([14]; after 1 day of treatment): trend of dose proportionality | dose proportionality of exposure ([14]; after 28 days of treatment): inconsistent phenomena | highest non-severely toxic dose (HNSTD) [15]: 30 mg/kg/day | absorption [16]: fast absorption | metabolism profile [16]: CYP involved metabolism | organ distribution [16]: substantial organ distribution especially in the lung, heart, and kidney

C#Cc1cccc(Nc2ncnc3cc(OCCOC)c(OCCOC)cc23)c1 [erlotinib]
response rate [17]: 60%
